From paper PMC8389655, “Au2phen and Auoxo6, Two Dinuclear Oxo-Bridged Gold(III) Compounds, Induce Apoptotic Signaling in Human Ovarian A2780 Cancer Cells” (Biomedicines, 2021)

Assays:
Assay type in all cases: cell-based, human
[1] = test system: A2780 cells; experiment: Annexin V/propidium iodide flow cytometry (apoptosis); conditions: A2780, 72 h exposure at IC50 dose
Procedure: The evaluation of cell death was carried out using the TACS annexin V/propidium iodide staining kit (Trevigen, Gaithersburg, MD, USA) according to the manufacturer’s instructions. […] After 72 h, controls and treated cells were trypsinized, washed with PBS buffer, and suspended in the staining solution for 15 min at room temperature in the dark. Cells were then washed and immediately analyzed by FACSCantoII flow cytometer (BD Biosciences, New Jersey, USA). Cells were gated and plotted on dot plots showing the distribution of annexin V-positive cells (early apoptotic cells) and annexin V/propidium iodide-positive cells (late apoptotic cells).

[2] = test system: caspase-9; experiment: FAM-FLICA caspase-9 activation, flow cytometry; conditions: A2780, 72 h at 72 h IC50 dose, compared to controls
Procedure: In addition, caspase-3, caspase-8, and caspase-9 activation was assessed in treated and untreated cells. Likewise, cells were trypsinized, washed with PBS, and suspended in FAM-FLICATM caspase solution (FAM-DEVD-FMK caspase FLICA kit, ImmunoChemistry Technologies, MN 55431 USA) for 30 min at 37 °C. Cells were then washed twice with PBS and analyzed using a FACSCantoII flow cytometer (BD Biosciences, New Jersey, USA).

[3] = test system: mitochondrial respiration of A2780 cells; experiment: Oxygen consumption rate (Clark-type O2 electrode); conditions: A2780, 24 h at 72 h IC50 dose, compared to controls
Procedure: The analysis of the oxygen consumption rate (OCR) was performed using a Clark-type O2 electrode inserted in a thermostated airtight chamber (Oxygraph Plus System, Hansatech Instruments, King’s Lynn, Norfolk, UK). Briefly, control and treated cells (12 and 24 h) were trypsinized, washed with PBS, and suspended in culture medium to measure the steady state OCR for 10 min. The OCR values, expressed as nmol of consumed O2/mL/min, were normalized to the cellular protein content. To evaluate the response of complex I, complex II/III, and ATP-synthase-driven OCRs in the presence or absence of gold-treatment, we used the protocol described by Baracca et al.. Cells were trypsinized, washed, and resuspended in buffer containing sucrose, TRIS-HCl, MgSO4, EDTA, and KH2PO4. Cell suspension was treated with digitonin to allow cell membrane permeabilization. To stimulate complex I, 250 mM glutamate/malate was added, whereas to stimulate complex II, 250 mM succinate was added (state 2 respiration). Then, to induce ATP-synthase-driven mitochondrial respiration, 10 mM ADP was added (state 3 respiration). To estimate the mitochondrial respiratory capacity, defined as the respiratory control ratio (RCR), state 3/state 2 ratios were calculated for control and treated cells.

[4] = test system: OXPHOS complex I; experiment: Western blot of OXPHOS complex I content; conditions: A2780, 24 h at 72 h IC50 dose, vs controls
Procedure: After drug treatments, cells were lysed in RIPA buffer supplemented with a cocktail of protease and phosphatase inhibitors. […] To favor the electrophoretic separation, 25% sample loading buffer (SLB) was added to the cell lysates. Here, 20 µg samples of proteins from controls and treated cells were loaded on 4–20% pre-cast SDS-PAGE gels and blotted onto PVDF membranes. Primary antibodies Bcl-2 (1:1000 dilution,#sc-7382, Santa Cruz, Dallas, Texas USA), Bax (1:1000 dilution, #sc-493, Santa Cruz), OXPHOS cocktail (1:1000 dilution, #ab110413, AbCam, Cambridge, UK), citrate synthase (1:1000 dilution, #sc-515640, Santa Cruz), ASK1 (1:1000 dilution, #sc-390275, Santa Cruz), phospho(Thr838)-ASK1 (1:1000 dilution, #CPA6042, Cohesion Biosciences, London, UK), AKT (1:1000 dilution, #sc-5298, Santa Cruz), and phospho(Ser473)-AKT (1:1000 dilution, #GTX128414, GeneTex, Irvine, CA, USA) were added to 2% non-fat dry milk in PBS-tween solution, while PVDF membranes were incubated overnight at 4 °C. Then, membranes were treated with horseradish peroxidase (HRP)-conjugated secondary antibodies (1:5000 dilution, Santa Cruz) and immunoreactive bands were detected with an ECL kit detection system on an Amersham Imager 600 (GE Healthcare, Chicago, IL, USA). For the quantification, a densitometric analysis of the bands was performed using ImageJ2 software version 2.0.0-rc-64 [23]. The intensities of the immunostained bands were normalized on the Coomassie brilliant blue R-250-stained total protein from the same PVDF membrane.

Row | Structure (SMILES) | increase of annexin V fluorescence intensity vs untreated control cells [1] | cells showing caspase-9 activation [2] | reduction of oxygen consumption rate (OCR) [3] | decrease of complex I protein content [4]
1 | Cc1ccc2ccc3ccc(C)[n+]4c3c2[n+]1[Au-]41[O][Au-]2([O]1)[n+]1c(C)ccc3ccc4ccc(C)[n+]2c4c31.F[P-](F)(F)(F)(F)F.F[P-](F)(F)(F)(F)F [Au2phen, ((2,9-dimethyl-1,10-phenanthroline)2Au2(µ-O)2)(PF6)2] | 6 fold | 60% | 26.8% | 48%
2 | CCOC(=O)CN(C)C1=[S+][Au-]([Br])([Br])[S]1 [AuL12, dibromo(ethylsarcosinedithiocarbamate)gold(III), reference compound] | 5 fold | ~ 30% | 18% | 28%
3 | Cc1cccc2[n+]1[Au-]1([O][Au-]3([O]1)[n+]1c(C)cccc1-c1cccc(C)[n+]13)[n+]1c(C)cccc1-2.F[P-](F)(F)(F)(F)F.F[P-](F)(F)(F)(F)F [Auoxo6, ((6,6′-dimethyl-2,2′-bipyridine)2Au2(µ-O)2)(PF6)2] | 10 fold | 75% | 24.7% | 50%
